Where no end group is shown, it is not given here. Bounds are passed on as bounds.

One data set relates to celiac disease. The following applies: cited from earlier work.
For data set [1], the system named is anti-deamidated gliadin peptide (anti-DGP IgA and IgG). The conditions noted are these: MITT. An excerpt: (§1) Blood was collected for determination of serum anti-tTG (IgA and IgG) and anti-DGP (IgA and IgG) at the timings specified in Table 2.
(§2) Anti-tTG (IgA and IgG) and anti-DGP (IgA and IgG), and change from baseline (Week 0) to Visit 4 (Week 4), End of Treatment Visit 6 (Week 12), and End of Study Visit 7 (Week 16) were summarized descriptively. Week 0 served as baseline.

Data set [2] relates to anti-tissue transglutaminase (anti-tTG IgA and IgG). The conditions noted are these: each treatment group, MITT.
Text: as §1, §2

A short description of data set [3]: Phase IIb study: vital signs, BMI and body weight. The data set is classed as in vivo, human. As for the experimental part: Body weight was measured and BMI was calculated based upon screening height and weight at the timings specified in Table 2.
The Investigator or designee obtained vital signs including temperature, blood pressure (sitting), and pulse at screening and all study visits.
For continuous variables, changes from baseline to each time point were summarized with the number of nonmissing values, mean, standard deviation, median, and minimum and maximum values. For categorical variables, subject counts and percentages were provided. Results of ECGs were classified as normal; abnormal, not clinically significant, and abnormal, clinically significant, as specified on the ECG page of the eCRF. Summaries were presented by treatment group.

As for “GGVLVQPG (SEQ ID NO:1) [Larazotide acetate]”, the “Safety profile in previous clinical studies, in words” value in the data set on celiac disease (0.25 mg to 8 mg TID and up to 36 mg in a single dose) is recorded as “acceptable safety profile”. The “Efficacy of lower doses in previous studies, in words” value with celiac disease (lower doses 0.25 mg and 1 mg versus 4 mg or 8 mg) is reported as “more effective compared to placebo than higher doses of 4 mg or 8 mg”. Besides, the “Anti-DGP (IgA and IgG) antibody titers versus placebo, in words” value in data set [1] (any Larazotide acetate group) was “no clinically meaningful post baseline differences”. In addition, in data set [1] (each treatment group), the “Average anti-DGP antibody titers (IgA) over the study, in words” value is “remained relatively unchanged”. The “Average anti-tTG antibody titers (IgA) over the study, in words” value in data set [2] is “remained relatively unchanged”. The “Average anti-tTG antibody titers (IgA)” value in data set [2] (throughout the study) is < 10 units. The “Mean change from baseline in BMI (range)” value in data set [3] (0.5, 1 and 2 mg groups, Week 4, Week 8, end of treatment, end of follow-up, placebo −0.1 to −0.3) was 0 to 0.2 kg/m^2. Besides, in data set [3] (0.5, 1 and 2 mg groups, placebo −0.2 to −0.8), the “Mean change from baseline in body weight (range)” value was -0.1 to 0.5 kg. Besides, in data set [3] (systolic and diastolic blood pressure, pulse rate, body temperature), the “Mean changes from baseline in vital sign variables versus placebo, in words” value was “No clinically meaningful differences”.
